Results: patent US12344584B2, “KCNQ potentiators” (Eli Lilly and Company, priority 2019, dated 2025)
Like-named read-outs stand apart in the source and are kept apart here.

Test system: motor neurons derived from ALS patient iPSC line with pathogenic repeat expansion mutation in C9orf72
Assay: Optopatch excitability assay in motor neurons derived from ALS patient iPSC line (C9orf72 repeat expansion)
Type: cell-based
Conditions: Homo sapiens, read-out: EC50, inhibition of excitability (action potential frequency)
Description: Optopatch Excitability Assay for Example 1 in Motor Neurons Derived From ALS Patient iPSC Lines
Altered excitability of cortical neurons and lower motor neuron is an important factor in the pathophysiology of ALS (See, for example, K. Kanai, et. al., J Neurol Neurosurg Psychiatry, 83, 734-738 (2012); P. Menon, et. al., Eur Neurol., 24, 816-824 (2017)). All-optical electrophysiology (“Optopatch”) was used to evaluate excitability in cultured motor neurons derived from iPSC lines from two ALS patients with different pathogenic mutations.
Cell Culture: The two iPSC lines are derived from one patient with a pathogenic mutation in TARDBP and one patient with a pathogenic repeat expansion mutation in C9orf72, respectively. Motor neurons are generated from these lines by a 2D differentiation method adapted from the dual SMAD inhibition neuronal patterning protocol (See S. M. Chambers, et. al., Nat Biotechnol., 27, 275-280 (2009)) by inclusion of motor neuron morphogens. Differentiation is verified by visual inspection, karyotyping and staining for beta-III-tubulin and the nuclear motor neuron marker ISL1. Neurons are cultured on a monolayer of mouse glia in mTeSR (Stem Cell Technologies), supplemented with 10 ng/mL BDNF. Forty-eight hours prior to imaging, 100 nM trans-retinal was added to the medium.
Transduction with Optopatch vectors: At 15 days in vitro, cultured motor neurons are transduced with a lentiviral vector to drive the co-expression of the actuator CheRiff-mOrange2 and the voltage indicator QuasAr3-Citrine (for details see D. R. Hochbaum, et. al., Nat. Methods, 11, 825-833 (2014)). Forty-eight hours prior to imaging, 100 nM trans-retinal was added to the medium.
Solutions: Recordings are performed in Brainphys™ imaging buffer with 3 mM potassium. […]
Optopatch Recordings: Five days after transduction, Optopatch imaging is performed on a custom, ultra-widefield fluorescence microscope at RT. Motor neurons are illuminated with red laser excitation (200 W/cm^2; 635 nm) to monitor changes in QuasAr fluorescence and blue LED excitation (0-127 mW/cm^2, 470 nm) to depolarize the cell membrane with CheRiff. […] Optopatch data are recorded using a Hamamatsu ORCA-Flash 4.0 sCMOS camera with a 1 kHz frame rate. […]
Data Analysis: Image segmentation analysis is performed using temporal Principle Component Analysis and spatial-temporal Independent Component Analysis to isolate individual neurons. A spike-finding algorithm is used to find action potentials, and data are analyzed for compound effects on mean firing rate, adaptation, rheobase and action potential waveform shape by comparing to vehicle controls (for detail, see C. A. Werley, et. al., Curr. Protoc. Pharmacol., 78, 11.20.1-11.20.24. (2017)). […]

EC50 (Diff 1, blue LED 5.1 mW/cm^2, mean): 0.17 µM
EC50 (Diff 2, blue LED 5.1 mW/cm^2, mean): 0.2 µM
SMILES: CC(C)(C)[C@H](O)CNC(=O)NCc1ccnc(OCC(F)(F)F)c1 [Example 1, 1-[(2S)-2-hydroxy-3,3-dimethyl-butyl]-3-[[2-(2,2,2-trifluoroethoxy)-4-pyridyl]methyl]urea]
